Source: patent publication US11351275B2, “Metal complexes with bisphophonate or pyrophosphate useful as imaging agents” (Duke University, priority 2015, dated 2022)

Tests used:
[1] = identical field strength (7T), commercial Gd(III) agent; cited from earlier work
[2] = EDTA reference value in competition experiments; cited from earlier work
[3] = In vivo MR imaging (biodistribution) after i.v. administration of Mn complexes; set-up: species or system mouse
Experimental: FIG. 4A. In vivo MRI in control mouse after i.v. administration of MnNTA.
FIG. 4B. MRI after i.v. administration of Mn:ETID (50 μL of 40 mM solution).
In vivo behavior was tested of two relatively strong (log K1>7) ligands for Mn(II) chelation, nitrilotriacetic acid (NTA), closely related to EDTA, and […] (3,4-DBA).
This in vivo behavior was also what is observed for the FDA-approved agent Teslascan. In the past, development of paramagnetic Mn complexes for MRI has been challenged by the inherent coordination lability of Mn(II) (e.g., Irving Williams series), resulting in the propensity of Mn(II) to be trans-metallated by other endogenous metals such as zinc in vivo. The only FDA-approved approved Mn(II) PM complex for MRI was Teslascan, which has now been discontinued. […] Contrast enhancement was therefore based on free Mn and confined to the liver.
Enhancement of the bowel is also noted but more variable, believed to represent elimination of the coordination complex from the gallbladder into the small intestine. […]
Finally, it is worth noting that free Mn is believed to be toxic neurologically if allowed to accumulate to high concentrations in certain neuronal populations. […] Since Mn accumulation in tissues is readily visualized with MRI, however, selective delivery of Mn-containing agents is easily monitored. […]

[4] = tested on: 4T1 tumor; test: Dynamic contrast enhancement of 4T1 tumor after i.v. administration; type: in vivo; settings: pilot data, versus paramagnetic coordination complex alone
Experimental: FIG. 5. Dynamic contrast enhancement of 4T1 tumor after i.v. admin of 1-hydroxybisphosphonate:Mn complex linked to HSP90 inhibitor as in Scheme 1C, 25 mg/kg. Graph on left depicts relative change in T1 enhancement in tumors after labeled drug (n=5) and after Mn:ETID complex alone (n=6).
Several synthetic strategies were used for labeling small molecule drugs either directly or via polyethyleneglycol (PEG) linkers. Two lead complexes, the first with a medronate analogue (Scheme 1B) via the amine-terminated PEG linker, and the second an etidronate analogue coupled through the COOH-terminated PEG linker (Scheme 1C), have now been synthesized, characterized and studied preliminarily in vivo.

[5] = FDA-approved Mn(II) agent, prior experience; cited from earlier work

For `O=C([O-])CN1CCN(CC(=O)[O-])CCN([C@H](CO)[C@H](O)CO)CCN(CC(=O)[O-])CC1.[Gd+3]` (racemic) [gadobutrol], the “r1 (relaxivity stated as equivalent)” value [1] is given as 5.2 mM⁻¹ s⁻¹.
For `O=C(O)CN(CCN(CC(=O)O)CC(=O)O)CC(=O)O` [EDTA], the “log K1” value [2] is given as 26.
In the case of `O=C(O)CN(CC(=O)O)CC(=O)O` [NTA, nitrilotriacetic acid], the cardiac enhancement ([3]; after i.v. administration, indicates free Mn released into blood pool) is reported as “cardiac enhancement was also seen” and the “biodistribution on in vivo MR imaging” value ([3]; mouse, in vivo, iv) is reported as “consistent with release of free Mn and hepatocellular uptake”.
With `Cc1nn(-c2ccc(C(N)=O)c(NCCCOCCOCCOCCOCCOCCCNC(=O)CC(P(=O)(O)O)P(=O)(O)O)c2)c2c1C(=O)CC(C)(C)C2` [Scheme 1B] the “enhancement in 4T1 tumors” value [4] was “progressive accumulation of enhancement in 4T1 tumors that is greater than what is seen for the paramagnetic coordination complex alone”.
In the case of `Cc1nn(-c2ccc(C(N)=O)c(NCCCOCCOCCOCCOCCOCCCC(=O)NCCCC(O)(P(=O)(O)O)P(=O)(O)O)c2)c2c1C(=O)CC(C)(C)C2` [Scheme 1C], the “enhancement in 4T1 tumors” value [4] is reported as “progressive accumulation of enhancement in 4T1 tumors that is greater than what is seen for the paramagnetic coordination complex alone”.
For `Cc1ncc(COP(=O)([O-])[O-])c(CN(CCN(CC(=O)[O-])Cc2c(COP(=O)([O-])[O-])cnc(C)c2[O-])CC(=O)[O-])c1[O-].[H+].[H+].[H+].[Mn+2].[Na+].[Na+].[Na+]` [Teslascan], the “in vivo distribution behaviour” value [5] is given as “immediately distributed to the liver, releasing free Mn”.
